{
  "source": "patent US20250213649A1",
  "about": "“PEPTIDE HAVING ANTI-INFLAMMATORY AND ANTI-FIBROTIC ACTIVITIES AND USE THEREOF” (CAREGEN CO., LTD., priority 2022, published 2025)",
  "key": {"MRC-5 cells [1]": {"tested_on": "MRC-5 cells", "assay": "ELISA of LPS-induced IL-6 and IL-8, MRC-5 cells", "format": "cell-based", "details": "5 μg/ml LPS, peptide 10, 50, 100, 500 μM, 72 hours, culture supernatant (FIG. 5a, 5b)", "experimental": "MRC-5 cells (lung fibroblast cells) were seeded at 2×10^5 cells/well in a 12-well plate and used in the experiment. After culturing for 1 day with a culture medium containing 10% FBS, the culture medium was replaced with a culture medium without containing FBS to induce starvation for 4 hours. Cells of a normal group without being treated with any substances, a group treated with 5 μg/ml of LPS (Sigma Aldrich) (negative control group), groups treated with 5 μg/ml of LPS and the peptide of Production Example 1 (10, 50, 100, 500 μM), and a group treated with 5 μg/ml of LPS and 10μM of Dexamethasone (DEX) (positive control group) were treated with active substances and drugs respectively and then cultured for 72 hours. After cell culture, the supernatant obtained by centrifuging the culture solution at 4° C. and 3,000 rpm for 10 minutes was subjected to ELISA analysis using an IL-6 Quantikine ELISA Kit (R&D systems) and an IL-8 Quantikine ELISA kit (R&D systems) according to the method of use in the kit instructions, and then the absorbance was measured at 450 nm using a microplate reader."}, "MRC-5 cells [2]": {"tested_on": "MRC-5 cells", "assay": "Inhibition of fibrosis gene expression induced by TGF-β1, RT-PCR, MRC-5 cells", "format": "cell-based", "details": "5 ng/ml TGF-β1, peptide 10, 50, 100, 500 μM, 3 hours, RT-PCR (FIG. 7)", "experimental": "MRC-5 cells (lung fibroblast cells) were seeded at 2×10^5 cells/well in a 12-well plate and used in the experiment. After culturing for 1 day with a culture medium containing 10% FBS, the culture medium was replaced with a culture medium without containing FBS to induce starvation for 4 hours. Cells of a normal group without being treated with any substances, a group treated with 5 ng/ml of TGF-β1 (negative control group), groups treated with 5 ng/ml of TGF-β1 and the peptide of Production Example 1 (10, 50, 100, 500 μM), and a group treated with 5 μg/ml of LPS and 10 μM of Dexamethasone (DEX) (positive control group) were treated with the above-described active substances and drugs, and then RNA was extracted after 3 hours to carry out RT-PCR. RNA was extracted from MRC-5 cells using an easy-BLUE™ Total RNA extraction kit (Qiagen, Germany). The extracted RNA was converted into cDNA using RT-PCR premix (iNtRON Biotechnology, Seongnam, Korea). After preparing a reaction mixture with PCR premix (iNtRON Biotechnology, Seongnam, Korea) and primers for each gene, PCR was carried out using a PCR machine (Eppendorf, Germany). Next, the mRNA expression pattern was determined by agarose gel electrophoresis."}, "A549 cells": {"tested_on": "A549 cells", "assay": "ELISA of inflammatory cytokine proteins induced by IL-1β, A549 cells", "format": "cell-based, human", "details": "IL-1β 2 ng/ml, peptide 10, 50, 100, 500 μM, 72 hours, culture supernatant (FIG. 9a-9c)", "experimental": "A549 cells (human alveolar basal epithelial cells) were seeded at 2×10^5 cells/well in a 12-well plate and used in the experiment. After culturing for 1 day with a culture medium containing 10% FBS, the culture medium was replaced with a culture medium without containing FBS to induce starvation for 4 hours. Cells of a normal group (NON) without being treated with any substances, a group treated with IL-1β (2 ng/ml) (negative control group, NC), groups treated with IL-1β (2 ng/ml) and the peptide of Production Example 1 (10, 50, 100, 500 μM), and a group treated with IL-1β (2 ng/ml) and Dexamethasone (DEX) (10 μM) (positive control group) were treated with active substances and drugs respectively, and then cultured for 72 hours. After cell culture, the supernatant obtained by centrifuging the culture solution at 4° C. and 3,000 rpm for 10 minutes was subjected to ELISA analysis using an IL-6 Quantikine ELISA Kit (R&D systems), an IL-8 Quantikine ELISA Kit (R&D systems), and an IL-1β Quantikine ELISA Kit (R&D systems) according to the method of use in the kit instructions, and then the absorbance was measured at 450 nm using a microplate reader."}, "BALB/c mice": {"tested_on": "BALB/c mice", "assay": "LPS-induced acute lung inflammation model, cell counts in bronchoalveolar lavage fluid", "format": "in vivo", "details": "BALB/c female mice, LPS 10 μg intranasal, peptide 0.5 mg, 1 mg intranasal 1 hour after LPS, 24 hours (FIG. 10a, 10b)", "experimental": "BALB/c mice (Female/7W) were used in animal experiments, and an acute lung inflammation model was established by injection of LPS. As shown in [Table 5] below, 7-week-old BALB/c female mice were divided into 5 groups of 5 mice each, and then the experiment was carried out. On the 1st day, LPS (10 μg/50 μl/mouse) was administered intranasally to the G2 to G5 groups. 1 hour after LPS administration, the G3 and G4 groups were subjected to intranasal administration with the peptide of Production Example 1 (0.5 mg, 1 mg), and the G5 positive control group was subjected to intraperitoneal administration with Dexamethasone (100 μg). 24 hours after the administration of the active substance and the drug, the mice were sacrificed to obtain the bronchoalveolar lavage fluid and the lung tissue, which were used in the next analysis.\nAfter anesthetizing the mouse, the treatment area was disinfected with 70% ethanol. […] The separated cells were resuspended in 0.5 ml of PBS, subsequently diluted with trypan blue solution at a 1:1 ratio, and then the total number of cells was counted using a hematocytometer. […] After staining, cells were observed and counted through a microscope, and then the number of immune cells with respect to the total number of cells was calculated to show the results as a graph."}, "[3]": {"assay": "BLM-induced pulmonary fibrosis model, body weight change", "format": "in vivo", "details": "BALB/c male mice with BLM-induced pulmonary fibrosis, peptide 1 mg/mouse intranasal three times a week for 14 days from 7th day (FIG. 13a)", "experimental": "As shown in [Table 6] below, 8-week-old BALB/c male mice were divided into 4 groups of 5 mice each. On the 1st day, a Bleomycin solution ([…]/50 μl/mouse) was administered through the oropharynx to carry out one time of induction with BLM. Then, from the 7th day, the peptide of Production Example 1 (1 mg/mouse) was administered intranasally three times a week for 14 days, and Pirfeninone (2 mg/mouse) for a positive control group was administered orally three times a week for 14 days. On the 21st day of the induction with BLM, mice were sacrificed to obtain the bronchoalveolar lavage fluid and the lung tissue, which were used in the next analysis."}},
  "data": [
    {"sequence": "KYLLVHRPYYRR [peptide of Production Example 1]", "values": [
      {"measurement": "expression level of IL-6 (ELISA)", "setting": "MRC-5 cells [1]", "result": "decreased the expression levels of IL-6 and IL-8 in a concentration-dependent manner"},
      {"measurement": "expression level of IL-8 (ELISA)", "setting": "MRC-5 cells [1]", "result": "decreased the expression levels of IL-6 and IL-8 in a concentration-dependent manner"},
      {"measurement": "expression of Collagen 1A1 gene", "setting": "MRC-5 cells [2]", "result": "decreased the expression of genes in a concentration-dependent manner"},
      {"measurement": "expression of Fibronectin 1 gene", "setting": "MRC-5 cells [2]", "result": "decreased the expression of genes in a concentration-dependent manner"},
      {"measurement": "expression of Tenascin C gene", "setting": "MRC-5 cells [2]", "result": "decreased the expression of genes in a concentration-dependent manner"},
      {"measurement": "expression of α-SMA gene", "setting": "MRC-5 cells [2]", "result": "decreased the expression of genes in a concentration-dependent manner"},
      {"measurement": "expression level of IL-1β (ELISA)", "setting": "A549 cells", "result": "decreases the expression levels of IL-1B, IL-6, and IL-8 in a concentration-dependent manner"},
      {"measurement": "expression level of IL-6 (ELISA)", "setting": "A549 cells", "result": "decreases the expression levels of IL-1B, IL-6, and IL-8 in a concentration-dependent manner"},
      {"measurement": "expression level of IL-8 (ELISA)", "setting": "A549 cells", "result": "decreases the expression levels of IL-1B, IL-6, and IL-8 in a concentration-dependent manner"},
      {"measurement": "number of macrophages in bronchoalveolar lavage fluid", "setting": "BALB/c mice", "result": "not increased or decreased"},
      {"measurement": "number of neutrophils in bronchoalveolar lavage fluid", "setting": "BALB/c mice", "result": "significantly reduced the increased number of neutrophils in a concentration-dependent manner"},
      {"measurement": "body weight", "setting": "[3]", "result": "recovered again"}
    ]}
  ]
}
